Results taken from patent US12239713B2, “Degradable polyethylene glycol conjugate” (NOF CORPORATION, priority 2018, dated 2025).
Where no end group is shown, it is not given here.

Tested on: blood calcium concentration
Assay: Evaluation of physiological activity of PEGylated salmon calcitonin (blood calcium concentration)
Type: in vivo, Mouse Balb/c
Settings: sCT dose 40 μg/kg, blood at 1, 3, 6, 24 hr, compared to saline (PBS) group, FIG. 10
Experimental: The method for evaluating the physiological activity of a bio-related substance bonded to a degradable polyethylene glycol derivative is not particular limited. For example, when the bio-related substance is insulin, blood sugar concentration is measured, and when it is calcitonin, blood calcium concentration is measured, by periodically collecting blood from the animal that received administration and measuring the substance in the blood by using an appropriate analytical instrument, and the like, based on which the evaluation can be performed. Specifically, in the case of insulin, a glucose measurement kit is used to monitor a decrease in glucose concentration after administration and, in the case of calcitonin, a decrease in calcium concentration after administration is monitored using a calcium measurement kit, based on which the evaluation can be performed.
The physiological activities of 4 groups of ME-200GLFG (SEQ ID NO: 4) (L)-200-sCT which is SCT to which degradable polyethylene glycol derivative with a molecular weight of 40,000 is bonded and obtained in Example 16, methoxy PEG 40 kDa-sCT bonded to nondegradable methoxy PEG 40 kDa, unmodified sCT, and saline were comparatively evaluated in animal experiments. […]

salmon calcitonin (CSNLSTCVLGKLSQELHKLQTYPRTNTGSGTP; ends and bridges not checked; cysteine pairing not given here) [Unmodified sCT]
calcium concentration in blood (in words): showed an increase in calcium concentration 6 hr after administration
